Counter-ions that a name gives are not always drawn. Like-named read-outs stand apart in the source and are kept apart here. Marks after values point to notes of the source that are not given here.
How the values were obtained:
hydroxyl radical = assay: Hydroxyl radical formation in the Fenton reagent (chemiluminescence); assay type: biochemical
mongrel male rats [1] = details: po, 96 h
superoxide anion-radical = assay: Superoxide anion-radical formation in the xantine-xantine oxidase system (chemiluminescence); assay type: biochemical
Protocol: Effect of the compounds of general formula (I) on change in chemiluminescence (CL) determined by hydroxyl radical ( OH) and superoxide anion-radical (O2-), in the model chemical and enzymatic systems.
5 to 10 ml of the test compounds dissolved in water were at needed concentration introduced into a cuvette. A total sample volume was 0.5 ml. • B. Superoxide anion-radical in the mixture of xantine and xantine oxidase [Afanas'ev I., Suslova T., Cheremisina Z. et al. Study of antioxidant properties of metal aspartates.
Incubation medium comprised 5 mM KH2PO4; 0.2 IU/ml xantine oxidase. Xantine at concentration 1 mM was introduced into sample through a dispencer. Luceginine (0.2 mM) was used in this system as luminiscence sensitizer.
CL signal indication was performed by its integration every 10 seconds for 5 minutes. CL flash recording duration after mixing ingredients, depended on a particular process kinetics. For each system, CL light sum (mV) was determined in the control samples without preparations (I-) and in samples comprising respective concentrations of preparations (I+). To estimate CL inhibition (activation) degree, the I+/I- ratio (in relative units) was found in the studied systems.
AOF formation and effect of the test compounds on this process were recorded on the Luminometer-1251 instrument (LKB, Sweden).
Because of such "distension" of the kinetic curve, chemiluminescence light sum was recorded during the first 3-5 minutes which reflected a total amount of light quantums produced in the system till achieving the maximum CL intensity values.

mongrel male rats [2] = assay: Hypolipidemic activity: experimental hyperlipidemia (atherogenic load); details: atherogenic diet, oral last four days; for HDL-CS / Total CS / Triglycerides: blood; for Kcs: cholesterol index;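 as to all read-outs here: serum drawn 18 h after the final dose from rats deprived of food over that interval, groups of 10 animals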
[3] = system: hepatic P-450 cytochrome system; assay: Hexenal sleep duration in mice; assay type: in vivo; details: CBF1 mice, oral 3 days, control 25.91 ± 1.57
Protocol: Change in Hexenal sleep (HS) duration is the in vivo measurable index of hepatic P-450 cytochrome system condition.
Studies were carried out on male mice of the lines BALB/c*h75, C57B1/6, CBA, DBA/2, first generation CBF1 and BDF1 hybrides, with initial mass 18-20 g, each group including 10 mice; and on mongrel male guinea pigs with initial mass 250-300 g, each group including 24 animals. All the test compounds (from II to LII) were administered orally in drinking water and for three days at doses 50 and 500 µg/kg. Hexenal hydrochloride at a dose […] of animal mass was administered 24 hours after the last drug administration, except for line BALB/c*h75 mice, which were administered Hexenal at a dose 60 µg/kg at the same terms, and guinea pigs for which Hexenal dose was 30 µg/kg. HS duration was determined in minutes.

[4] = system: Isolate HIV-1/IV17 of type 1 human immunodeficiency virus; assay: Viability of MT-4 cells acutely infected with HIV-1; assay type: cell-based; details: Human immunodeficiency virus 1, MT4, 168 h, day 7, series 2 (infected cells 24, non-infected 88), read-out: Viability of cells in percent
Protocol: Study was carried out on the culture of human lymphoblastoid cells MT-4. Isolate HIV-1/IV17 of type 1 human immunodeficiency virus from the collection of the D.I.Ivanovsky Institute for Virology was used in experiment. The test compounds of general formula (I): III, VI, VII were introduced into cellular culture at concentrations 1.0; 0.1 and 0.01 µg/ml. The reference drug Azidothymidine was introduced at a dose 0.05 µM/ml. The compounds were introduced into the culture of MT-4 cells at a dose 1000 TCD50 one hour prior to virus introduction. Viability of MT-4 cells was estimated by day 7 of experiment.
Viability of cells was the main efficacy parameter of the test compounds.

[5] = system: Strain Aichi of type A human influenza virus; assay type: in vivo; details: for MLT, days: series with Control - 2 (9.1), 3 days before and 10 days following infection; for Survival rate in percent: series with Control - 2 (34.5); for Protection degree in percent: series with Control - 2
white mongrel male rats [6] = assay: Paw edema induced by Freund's complete adjuvant; assay type: in vivo; details: rats, FCA edema; once 50 µg/kg 1 hour before edema induction
Protocol: Experiment was carried out on white mongrel male rats weghing 280-300 g. The model of paw edema induced by Freund's complete adjuvant (FCA), was reproduced according to the method of Ezamuzie and Umezurike [Ezamuzie Ch., Umezurike C.C. Effect of histamine H2-receptor antagonists on acute inflammatory of the rat paw oedema. J. Pharmacol. (1989), Vol. 41, pp. 261-265]. Paw volume measurement was done using a plethysmograph (Ugo Basile). Inhibition of inflammatory reaction expressed in percent, as calculated according to the formula: 100-[(R-L(exper.))/(L):(R-L(control))/(L)x100](%) [formula] where R - the right paw volume, L - the left paw volume.
Each group included 10 animals.
Group of animals: • Group 1 - control, animals were administered 0.5 ml of 1% starch solution. • Group 2 - animals were administered the compound XLVIII. • Group 3 - animals were administered the compound III. • Group 4 - animals were administered Naproxene.

white mongrel male rats [7] = assay: Carrageenan paw edema, oral administration (series I); assay type: in vivo; details: once 20 µg/kg 1 hour before edema induction
Protocol: Experiment was carried out on white mongrel male rats weighing 280-300 g. Carrageenan-induced edema was caused according to the method of Winter et al. [[inter et al. In: De Rosa M., Giroud J.P., Willoughby D.A. Studies of the mediators of the acute inflammatory reponse induced in rats in different sites by carrageenan and turpentine. […] Paw volume measurement was done using a plethysmograph (Ugo Basile) 1, 3 and 4 hours after carrageenan administration. Inhibition of inflammatory reaction expressed in percent, was calculated according to the formula: 100-[(R-L(exper.))/(L):(R-L(control))/(L)x100](%) [formula] where R - the right paw volume, L - the left paw volume.
Series I of experiment. […] The reference drug Naproxene was once administered at a dose 20 µg/kg 1 hour before edema induction. Each group included 10 animals.

[8] = system: Lewis pulmonary carcinoma (LLC); assay: Lewis pulmonary carcinoma spontaneous metastasizing, oral administration; assay type: in vivo; details: BDF1 female mice with LLC, oral 24 days; for Mean number of metastases: day 25
Protocol: Each group included 15 animals. 0.3 ml of LLC tumor tissue suspension was intramuscularly injected to mice. Henks solution was used as a solvent. […] Moscow (1992) 13 pp.]. […]

peritoneal macrophages = assay: Activity of peritoneal macrophages (NBT reduction test); assay type: in vivo, mongrel white male mice
Protocol: Change in the activity of peritoneal macrophages (PM) as effected by the test compounds was studied.
Experiments were carried out on mongrel white male mice with initial body mass 20-22 g. Each group included 10 animals. Compounds III, VI, XLIV were dissolved in normal saline (NS). The test compounds were administered to animals orally for three days at doses 50 and 500 µg/kg. Animals of the control group were given equal volume of NS. Mice were sacrified 20 hours after the last compound administration, peritoneal cavity was washed with 1.5 ml Henks solution comprising 5 U/ml heparine. 0.1 ml of wash solution were incubated for 30 minutes at 37°C with 0.1 ml 0.2% nitroblue tetrasolium (NBT) solution, then smears were prepared. Nuclei were additionaly stained with o.1% neutral red solution. Results were expressed in percent of active cells [Klimov V.V., Kolovkina T.V. Nitroblue tetrasolium reduction test stimulated with pyrogenal. Laborotornoye delo (Laboratory matter) (1982), No 10, pp. 624-625]. […]

[9] = 0.1 mM, control of the series as in the table
[10] = 1 mM, control of the series 7839 ± 171, 1120 ± 163, 4974 ± 283 or 1332 ± 172
[11] = 0.01 mM, control of the series as in the table
[12] = 1 mM, control of the series 5616 ± 173, 5391 ± 195, 7290 ± 128 or 6776 ± 150

COC(=O)[C@H](Cc1c[nH]cn1)NC(=O)CC[C@H](N)C(=O)O [compound VII, γ -L-GLUTAMYL-HISTIDINE METHYL ETHER DIHYDROCHLORIDE]
Chemiluminiscence intensity (mV) + σn-1 (hydroxyl radical; [9]): 1158 ± 102 mV
relative effect: I+/I- (hydroxyl radical; 1 mM): 0.15
Chemiluminiscence intensity (mV) + σn-1 (hydroxyl radical; [10]): 165 ± 7 mV
LDL-CS+ VLDL-CS (mongrel male rats [1]; 0.05 mg/kg): 46,3±3,2**^A
LDL-CS+ VLDL-CS (mongrel male rats [1]; 0.5 mg/kg): 55,8±3,9**^A
relative effect: 1+/I- (superoxide anion-radical; 0.01 mM): 0.91
Chemiluminiscence intensity (mV) + σn-1 (superoxide anion-radical; [11]): 5082 ± 278 mV
relative effect: 1+/I- (superoxide anion-radical; 0.1 mM): 0.72
Chemiluminiscence intensity (mV) + σn-1 (superoxide anion-radical; [9]): 4050 ± 291 mV
relative effect: 1+/I- (superoxide anion-radical; 1 mM): 0.20
Chemiluminiscence intensity (mV) + σn-1 (superoxide anion-radical; [12]): 1114 ± 51 mV
HDL-CS (mongrel male rats [2]; 50 µg/kg): 26,0±1,9
Total CS (mongrel male rats [2]; 50 µg/kg): 72,3±4,9**^A
Triglycerides (mongrel male rats [2]; 50 µg/kg): 250,6±12,0
HDL-CS (mongrel male rats [2]; 500 µg/kg): 22,3±2,2
Total CS (mongrel male rats [2]; 500 µg/kg): 78,1±3,3
Triglycerides (mongrel male rats [2]; 500 µg/kg): 251,4±12,71
Kcs (mongrel male rats [2]; 50 µg/kg): 1,78±0,12***^A
Kcs (mongrel male rats [2]; 500 µg/kg): 2,5±0,17**^A
Hexenal sleep duration (minutes) ([3]; 50 µg/kg): 17.62 ± 0.96* minutes
Hexenal sleep duration (minutes) ([3]; 500 µg/kg): 16.99 ± 1.33* minutes
viability at 0.01 µg/mL [4]: 34%
viability at 0.1 µg/mL [4]: 49%
viability at 1 µg/mL [4]: 51%
increase in MLT, survival rate and protection degree ([5]; mice, influenza virus, 500 µg/kg): most manifested

COc1ccc2cc([C@H](C)C(=O)O)ccc2c1 [Naproxene, reference compound]
Inflammation inhibition (%) (white mongrel male rats [6]): 44%
Volume increment (white mongrel male rats [6]): 0.45 ± 0.02
Volume of paws (conditional units) Right (white mongrel male rats [6]): 1.75 ± 0.54 conditional units
Volume of paws (conditional units) left (white mongrel male rats [6]): 1.30 ± 0.25 conditional units
Inflammation inhibition (%) (white mongrel male rats [7]): 37%
Volume increment (white mongrel male rats [7]): 0.48 ± 0.02
Volume of paws (conditional units) Right (white mongrel male rats [7]): 1.82 ± 0.54 conditional units
Volume of paws (conditional units) left (white mongrel male rats [7]): 1.34 ± 0.25 conditional units

CC(=O)N[C@@H](CCC(=O)NCCc1c[nH]cn1)C(=O)O [VI, N -ACETHYL-γ-L-GLUTAMYLHISTAMINE]
Chemiluminiscence intensity (mV) + σn-1 (hydroxyl radical; [11]): 5014 ± 186 mV
relative effect: I+/I- (hydroxyl radical; 0.1 mM): 0.63
Chemiluminiscence intensity (mV) + σn-1 (hydroxyl radical; [9]): 3110 ± 210 mV
relative effect: I+/I- (hydroxyl radical; 1 mM): 0.05
Chemiluminiscence intensity (mV) + σn-1 (hydroxyl radical; [10]): 257 ± 74 mV
LDL-CS+ VLDL-CS (mongrel male rats [1]; 0.05 mg/kg): 50,3±5,5**^A
LDL-CS+ VLDL-CS (mongrel male rats [1]; 0.5 mg/kg): 25,0±1,6***^A
Chemiluminiscence intensity (mV) + σn-1 (superoxide anion-radical; [11]): 7295 ± 106 mV
relative effect: 1+/I- (superoxide anion-radical; 0.1 mM): 0.76
Chemiluminiscence intensity (mV) + σn-1 (superoxide anion-radical; [9]): 5518 ± 131 mV
relative effect: 1+/I- (superoxide anion-radical; 1 mM): 0.12
Chemiluminiscence intensity (mV) + σn-1 (superoxide anion-radical; [12]): 902 ± 15 mV
HDL-CS (mongrel male rats [2]; 50 µg/kg): 35,7±5,6*^A
Total CS (mongrel male rats [2]; 50 µg/kg): 86,0±5,2
Triglycerides (mongrel male rats [2]; 50 µg/kg): 141,2±16,1***^A
HDL-CS (mongrel male rats [2]; 500 µg/kg): 45,8±3,5***^A
Total CS (mongrel male rats [2]; 500 µg/kg): 70,8±3,7***^A
Triglycerides (mongrel male rats [2]; 500 µg/kg): 127,2+7,1***^A
Kcs (mongrel male rats [2]; 50 µg/kg): 1,41±0,16***^A
Kcs (mongrel male rats [2]; 500 µg/kg): 0,55±0,04***^A
Mean number of metastases ([8]; 50 µg/kg): 35.5 ± 4.5*^2
Mean number of metastases ([8]; 500 µg/kg): 39.0 ± 14.0
Metastasizing inhibition percent ([8]; 50 µg/kg): 24.0%
Metastasizing inhibition percent ([8]; 500 µg/kg): 17.0%
Hexenal sleep duration (minutes) ([3]; 50 µg/kg): 16.86 ± 1.38*** minutes
Hexenal sleep duration (minutes) ([3]; 500 µg/kg): 14.39 ± 1.73*** minutes
viability at 0.01 µg/mL [4]: 45%
viability at 0.1 µg/mL [4]: 49%
viability at 1 µg/mL [4]: 54%
MLT, days ([5]; 50 µg/kg orally): 11.24*^2 days
MLT, days ([5]; 500 µg/kg orally): 11.62*^2 days
Survival rate in percent ([5]; 50 µg/kg orally): 73.3*^2%
Survival rate in percent ([5]; 500 µg/kg orally): 79.3*^2%
Protection degree in percent ([5]; 50 µg/kg orally): 38.8%
Protection degree in percent ([5]; 500 µg/kg orally): 44.8%
portion of active macrophages (peritoneal macrophages; mice, oral three days at 50 and 500 µg/kg): at a dose 50 µg/kg
Activity of macrophages, percent (peritoneal macrophages; score 0 (no formazane inclusions, inactive PM), 50 µg/kg orally for three days): 17.9 ± 1.4%
Activity of macrophages, percent (peritoneal macrophages; score 0 (no formazane inclusions, inactive PM), 500 µg/kg orally for three days): 20.3 ± 3.4%
Activity of macrophages, percent (peritoneal macrophages; score 1 (single formazane inclusions), 50 µg/kg orally for three days): 30.9 ± 3.0%
Activity of macrophages, percent (peritoneal macrophages; score 1 (single formazane inclusions), 500 µg/kg orally for three days): 37.9 ± 3.1%
Activity of macrophages, percent (peritoneal macrophages; score 2 (inclusions fill up to 1/3 of PM cytoplasm), 50 µg/kg orally for three days): 40.3 ± 2.1%
Activity of macrophages, percent (peritoneal macrophages; score 2 (inclusions fill up to 1/3 of PM cytoplasm), 500 µg/kg orally for three days): 34.0 ± 4.0%
Activity of macrophages, percent (peritoneal macrophages; score 3 (inclusions fill up to 1/2 of PM cytoplasm), 50 µg/kg orally for three days): 10.4 ± 1.9%
Activity of macrophages, percent (peritoneal macrophages; score 3 (inclusions fill up to 1/2 of PM cytoplasm), 500 µg/kg orally for three days): 7.1 ± 2.0%

From patent EP2229935A1, “Peptide derivatives or pharmaceutically acceptable salts thereof, method for producing the same, use of said derivatives and pharmaceutical composition” (Nebolsin, Vladimir Evgenievich, priority 1997, dated 1999)
